Data as given in paper PMC10487517, “Impacts of Halogen Substitutions on Bisphenol A Compounds Interaction with Human Serum Albumin: Exploring from Spectroscopic Techniques and Computer Simulations” (International Journal of Molecular Sciences, 2023).

Key:
[1] = target: T1, HSA (Homo sapiens, UniProt P02768); conditions: level of the Ka value; cited from earlier work
T1 construct: HSA and Tris were obtained from Sigma-Aldrich, St. Louis, MI, USA; purchased Sigma-Aldrich

[2] = target: T1, HSA; assay: Site-specific competitive experiment (fluorescence) with site markers; type: binding; conditions: for Kd: Ka, room temperature, n = 3; for primary binding site on HSA: site-marker competition
Description: The site-specific competitive experiment was conducted following the methodology described in the literature, using […], ibuprofen, and phenylbutazone as site-specific probes. First, a 1:1 complex of the site-specific probe with HSA was prepared in the buffer solution. […] This experiment was conducted under the same test conditions as the thermodynamic experiment, except at room temperature.

[3] = target: T1, HSA; assay: Circular dichroism spectroscopy, HSA secondary structure (CONTINLL); conditions: [HSA] = [ligand] = 1.0 × 10^−6 M; for β-Sheet: free HSA 7.7; for β-Turn: free HSA 14.1; for Random Coil: free HSA 26.9; for α-Helix: free HSA 51.4
Description: The concentration of HSA and the ligands was set as 1.0 × 10^−6 M. The instrumental parameters were set as follows: path length of 1 mm and scanning speed of 100 nm min^−1.

[4] = target: T1, HSA; assay: Site-specific competitive experiment (fluorescence) with site markers; type: binding; conditions: Ka, with Digoxigenin, [Ligands]/[Site Marker] 1:1; room temperature; n = 3
[5] = target: T1, HSA; assay: Three-dimensional fluorescence spectra of HSA with ligand; conditions: [HSA] = [ligand] = 1.0 × 10^−6 M; for Peak 1 ∆λ: free HSA 62; for Peak 2 ∆λ: free HSA 109; for Peak 2 λex/λem: free HSA 225/334; for Peak 1 λex/λem: free HSA 279/341; for Peak 1 F: free HSA 368.7; for Peak 2 F: free HSA 801.7; for change of Stokes shift of peak 2: versus free HSA
[6] = target: T1, HSA; assay: Fluorescence quenching / fluorescence–thermodynamic experiment with HSA; type: binding; conditions: for Ksv: Stern–Volmer quenching constant, Tris-HCl pH 7.4; for Kd: Ka, binding constant, double logarithmic equation; for ∆H: enthalpy change of binding; for ∆H / ∆S: from Ka at 298, 303, 310 K; for ∆S: entropy change of binding; for fluorescence quenching mechanism: from Kq and trend of Ksv with temperature; for main binding forces: from signs of ΔH and ΔS
Description: Prior to taking steady-state fluorescence measurements, the HSA and ligand mixture solution was given 2 min to equilibrate.
To account for the ligand concentration in the study system, which was much lower than the 10^−5 M level, the inner-filter effect of the ligand was neglected. The Stern–Volmer equation and double logarithmic equation (Equations (1)–(3)) were used to analyze the data of fluorescence spectra. Thermodynamic parameters were obtained using Equation (4) to determine the driving forces in the binding process. […] In addition, R and T are the gas constant at room temperature and the temperature in Kelvin, respectively.

[7] = Control group, [Ligands]/[Site Marker] 1:0
[8] = with Ibuprofen, [Ligands]/[Site Marker] 1:1
[9] = with Phenylbutazone, [Ligands]/[Site Marker] 1:1
[10] = 298 K, quenching rate constant, Kq=Ksv/τ0, τ0 6.30 ns
[11] = 303 K, quenching rate constant, Kq=Ksv/τ0, τ0 6.30 ns
[12] = 310 K, quenching rate constant, Kq=Ksv/τ0, τ0 6.30 ns
[13] = compared with maximum scattering collision quenching rate constant for dynamic quenching

T1 sequence (P02768 25-609): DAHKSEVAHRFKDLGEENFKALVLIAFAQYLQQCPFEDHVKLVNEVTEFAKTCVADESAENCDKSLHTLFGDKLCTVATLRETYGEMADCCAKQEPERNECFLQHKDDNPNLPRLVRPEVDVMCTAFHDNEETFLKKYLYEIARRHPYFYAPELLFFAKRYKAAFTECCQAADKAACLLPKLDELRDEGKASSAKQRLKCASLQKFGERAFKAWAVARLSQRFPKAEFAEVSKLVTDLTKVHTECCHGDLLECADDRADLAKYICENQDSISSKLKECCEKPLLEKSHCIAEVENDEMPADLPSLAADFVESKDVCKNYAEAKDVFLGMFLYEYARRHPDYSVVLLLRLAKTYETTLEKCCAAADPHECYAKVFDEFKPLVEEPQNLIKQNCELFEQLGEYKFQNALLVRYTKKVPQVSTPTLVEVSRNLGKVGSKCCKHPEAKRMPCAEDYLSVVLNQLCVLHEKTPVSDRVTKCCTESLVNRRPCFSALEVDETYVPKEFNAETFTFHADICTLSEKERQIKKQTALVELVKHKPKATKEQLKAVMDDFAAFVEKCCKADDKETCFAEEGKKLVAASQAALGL

In the case of `CC(C)(c1ccc(O)cc1)c1ccc(O)cc1` [BPA, Bisphenol A], the Ka [1] is given as about 1000 M⁻¹.

For `CC(C)(c1cc(Br)c(O)c(Br)c1)c1cc(Br)c(O)c(Br)c1` [TBBPA, tetrabromobisphenol A], the Kd [2, 7] was 734 nM, the Kd [2, 8] was 740 nM and the Kd [2, 9] was 1230 nM. The “primary binding site on HSA” value [2] was “site I”, the β-Sheet [3] was 7.3% and the β-Turn [3] was 14.7%. For the same compound, the “Random Coil” value [3] was 29.8%, the α-Helix [3] was 48.2% and the Kd [4] was 743 nM. For the same compound, the “Peak 1 ∆λ” value [5] was 59 nm, the “Peak 2 ∆λ” value [5] was 103 nm and the “Peak 2 λex/λem” value [5] was 225/328. The “Peak 1 λex/λem” value [5] was 279/338, the “Peak 1 F” value [5] was 254.0 and the “Peak 2 F” value [5] was 575.5. For the same compound, the “change of Stokes shift of peak 2” value [5] was 6 nm, the “∆G” value ([6]; 298 K) was -7.906 kcal/mol and the Kq [6, 10] was 1.210 10^14 M^−1·s^−1. The “∆G” value ([6]; 303 K) was -8.114 kcal/mol, the Ksv ([6]; 303 K) was 7.534 10^5 M^−1 and the Kq [6, 11] was 1.211 10^14 M^−1·s^−1. The “∆G” value ([6]; 310 K) was -8.408 kcal/mol, the Ksv ([6]; 310 K) was 7.627 10^5 M^−1 and the Kq [6, 12] was 1.226 10^14 M^−1·s^−1. For the same compound, the Kd ([6]; 298 K) was 1600 nM, the Kd ([6]; 303 K) was 1390 nM and the Kd ([6]; 310 K) was 1180 nM. For the same compound, the Kq [6, 13] was “greater than 2.0 × 10^10 M^−1·s^−1”, the “∆H” value [6] was 4.587 kcal/mol and the “∆S” value [6] was 175.4 J·moL^−1·K^−1. For the same compound, the fluorescence quenching mechanism [6] was “static quenching mechanism” and the main binding forces [6] was “hydrophobic interactions”.

In the case of `CC(C)(c1cc(Cl)c(O)c(Cl)c1)c1cc(Cl)c(O)c(Cl)c1` [TCBPA, tetrachlorobisphenol A], the Kd [2, 7] is reported as 1370 nM, the Kd [2, 8] is reported as 1320 nM and the Kd [2, 9] is reported as 3130 nM. The “primary binding site on HSA” value [2] was “site I”, the β-Sheet [3] was 8.2% and the β-Turn [3] was 14.2%. For the same compound, the “Random Coil” value [3] was 27.2%, the α-Helix [3] was 50.4% and the Kd [4] was 1280 nM. For the same compound, the “Peak 1 ∆λ” value [5] was 61 nm, the “Peak 2 ∆λ” value [5] was 108 nm and the “Peak 2 λex/λem” value [5] was 226/334. For the same compound, the “Peak 1 λex/λem” value [5] was 279/340, the “Peak 1 F” value [5] was 323.4 and the “Peak 2 F” value [5] was 692.6. For the same compound, the “change of Stokes shift of peak 2” value [5] was 1 nm, the “∆G” value ([6]; 298 K) was -7.187 kcal/mol and the Kq [6, 10] was 0.2135 10^14 M^−1·s^−1. The “∆G” value ([6]; 303 K) was -7.084 kcal/mol, the Ksv ([6]; 303 K) was 1.296 10^5 M^−1 and the Kq [6, 11] was 0.2083 10^14 M^−1·s^−1. For the same compound, the “∆G” value ([6]; 310 K) was -6.943 kcal/mol, the Ksv ([6]; 310 K) was 1.289 10^5 M^−1 and the Kq [6, 12] was 0.2073 10^14 M^−1·s^−1. It also gave a Kd ([6]; 298 K) of 4900 nM, a Kd ([6]; 303 K) of 9080 nM and a Kd ([6]; 310 K) of 11900 nM. The Kq [6, 13] was “greater than 2.0 × 10^10 M^−1·s^−1”, the “∆H” value [6] was -13.23 kcal/mol and the “∆S” value [6] was −84.86 J·moL^−1·K^−1. For the same compound, the fluorescence quenching mechanism [6] was “mixed quenching mechanism” and the main binding forces [6] was “hydrogen bonds and van der Waals forces”.
